The text below walks through data of publication PMC7053343, “Small molecule NSC1892 targets the CUL4A/4B-DDB1 interactions and causes impairment of CRL4^DCAF4 E3 ligases to inhibit colorectal cancer cell growth” (International Journal of Biological Sciences, 2020).

This experiment addresses T1, DNA damage-binding protein 1 (DDB1) (Homo sapiens, UniProt Q16531).
T1 construct: with CUL4A
The experiment is described as follows: AlphaScreen disruption of purified His-DDB1/GST-CUL4A interaction; in vitro Ni-NTA pulldown with recombinant proteins. (Bead proximity is the source of the signal in Alpha formats.)

The structures appear in SMILES notation.

T1 sequence (Q16531 whole entry): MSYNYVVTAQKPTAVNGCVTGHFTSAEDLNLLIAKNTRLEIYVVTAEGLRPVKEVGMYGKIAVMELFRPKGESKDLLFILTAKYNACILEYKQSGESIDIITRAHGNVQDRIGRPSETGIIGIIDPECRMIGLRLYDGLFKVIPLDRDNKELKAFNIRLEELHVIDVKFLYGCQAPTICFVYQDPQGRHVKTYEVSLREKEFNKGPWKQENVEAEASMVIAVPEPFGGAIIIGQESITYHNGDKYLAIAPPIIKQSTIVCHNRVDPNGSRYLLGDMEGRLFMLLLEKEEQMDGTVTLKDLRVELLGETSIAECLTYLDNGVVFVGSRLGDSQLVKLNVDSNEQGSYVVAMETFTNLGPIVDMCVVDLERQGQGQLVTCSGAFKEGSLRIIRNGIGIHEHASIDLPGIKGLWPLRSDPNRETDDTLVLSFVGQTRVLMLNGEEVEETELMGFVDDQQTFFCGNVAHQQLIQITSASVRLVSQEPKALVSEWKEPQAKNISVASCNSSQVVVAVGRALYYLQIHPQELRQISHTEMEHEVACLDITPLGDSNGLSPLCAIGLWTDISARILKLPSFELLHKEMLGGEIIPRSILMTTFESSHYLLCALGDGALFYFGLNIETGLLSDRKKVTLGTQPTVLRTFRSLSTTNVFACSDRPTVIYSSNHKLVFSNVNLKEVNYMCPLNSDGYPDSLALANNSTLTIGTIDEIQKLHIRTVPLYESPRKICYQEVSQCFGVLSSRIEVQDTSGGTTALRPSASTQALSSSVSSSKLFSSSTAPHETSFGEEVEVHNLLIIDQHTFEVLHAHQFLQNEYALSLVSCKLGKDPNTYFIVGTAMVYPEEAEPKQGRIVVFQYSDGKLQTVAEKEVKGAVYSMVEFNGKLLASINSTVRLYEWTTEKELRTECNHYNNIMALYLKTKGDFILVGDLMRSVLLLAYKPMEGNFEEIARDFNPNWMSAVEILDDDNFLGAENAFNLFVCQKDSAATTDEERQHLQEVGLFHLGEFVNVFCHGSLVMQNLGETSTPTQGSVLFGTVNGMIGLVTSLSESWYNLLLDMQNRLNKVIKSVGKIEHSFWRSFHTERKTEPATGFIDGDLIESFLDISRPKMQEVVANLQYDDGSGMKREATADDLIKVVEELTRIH
T1 sequence (Q13619 whole entry partner): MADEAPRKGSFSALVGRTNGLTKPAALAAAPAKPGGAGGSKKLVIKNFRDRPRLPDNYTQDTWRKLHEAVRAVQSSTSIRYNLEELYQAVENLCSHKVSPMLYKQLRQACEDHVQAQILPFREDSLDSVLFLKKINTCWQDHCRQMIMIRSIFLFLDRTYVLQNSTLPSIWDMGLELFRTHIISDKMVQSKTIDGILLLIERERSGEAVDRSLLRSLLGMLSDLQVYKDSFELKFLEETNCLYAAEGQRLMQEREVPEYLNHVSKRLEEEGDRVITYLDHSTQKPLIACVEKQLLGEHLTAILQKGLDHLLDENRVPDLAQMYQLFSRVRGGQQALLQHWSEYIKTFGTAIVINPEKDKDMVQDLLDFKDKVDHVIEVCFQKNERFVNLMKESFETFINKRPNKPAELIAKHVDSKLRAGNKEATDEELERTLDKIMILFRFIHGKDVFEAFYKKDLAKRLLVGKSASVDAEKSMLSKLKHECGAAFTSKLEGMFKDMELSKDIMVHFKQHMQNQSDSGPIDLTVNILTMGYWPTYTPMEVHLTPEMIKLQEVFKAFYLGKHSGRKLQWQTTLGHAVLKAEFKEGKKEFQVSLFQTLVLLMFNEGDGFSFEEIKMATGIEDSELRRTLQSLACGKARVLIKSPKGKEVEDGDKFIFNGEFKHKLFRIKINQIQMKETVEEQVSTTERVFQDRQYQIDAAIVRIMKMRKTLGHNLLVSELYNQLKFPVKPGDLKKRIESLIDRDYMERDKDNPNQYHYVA

With `CC(=O)O[C@@H]1c2occc2[C@@H](O)C[C@H]2[C@]3(C)CC[C@H]4C(C)(C)CCC[C@]4(C)[C@H]3C[C@@]21C` [NSC1892], the IC50 worked out at 1800 nM.

One may read the IC50 as the concentration that inhibits the measured activity by half.
